The results in this text go back to paper PMC9979347 (ACS Omega, 2023).

Values joined by “and” are separate entries in the source; they are usually repeats but may differ in a detail not shown here. Equal entries are not always repeated. “Also recorded” adds a separate entry of the source. Where two headings read alike, the source gives them in different places.

One assay addresses hCA II (Homo sapiens, UniProt P00918). Nature of the assay: stopped-flow CO2 hydration inhibition assay. The format is biochemical.
Another assay deals with hCA IX (Homo sapiens, UniProt Q16790). Nature of the assay: biochemical. The assay is classed as biochemical.
Another assay has as its target hCA I (Homo sapiens, UniProt P00915). The assay is described as follows: stopped-flow CO2 hydration inhibition assay. The assay is classed as biochemical.
The target of the next assay is hCA XII (Homo sapiens, UniProt O43570). The assay is described as follows: biochemical.
Another assay has as its system HCT15. Nature of the assay: NCI-60 SRB screen. The assay is classed as cell-based. The settings on record: Homo sapiens, HCT-15, 48 h.
In another assay the test system is SR. The assay is described as follows: NCI-60 SRB screen. The format is cell-based, human. Conditions: five-dose, 48 h.
Another assay has as its system hypoxic HCT116 cells. Nature of the assay: cells. The settings on record: Homo sapiens, HCT-116, 48 h, read-out: Cytotoxicity IC50 (μM ± SD) HCT116.
In assay [1] the test system is HEK293T cells. Conditions: for selectivity against colorectal carcinoma HCT116 cells: HEK293T IC50 versus HCT116 GI50; for average cancer cell fold selectivity: HEK293T IC50 versus average NCI-60 GI50; for IC50: read-out: IC50 (μM ± SD) normal HEK293T cells, MTT, 48 h, triplicate; for cancer cell selectivity compared to non-cancerous HEK293T cells: up to.
The subject of assay [2] is HEK293T cells. Nature of the assay: cells. Conditions: Homo sapiens, HEK-293T, 48 h, read-out: IC50 (μM ± SD) normal HEK293T cells, MTT, 48 h, triplicate.
The test system of a further assay is hypoxic U251 cells. Nature of the assay: cells. The settings on record: Homo sapiens, U-251, 48 h, read-out: Cytotoxicity IC50 (μM ± SD) U251.
A further assay concerns hCA I, II, IX, and XII. The assay is described as follows: stopped-flow CO2 hydration inhibition assay, across the four isoforms. The assay is classed as biochemical, human.
Assay [3] addresses T1, recombinant Pim-1 kinase (Homo sapiens, UniProt P11309). Nature of the assay: biochemical. Conditions: Pim-1 kinase IC50 (μM ± SD), ADP-Glo. (In ADP-Glo the light output rises with the ADP produced.)
A further assay relates to hypoxic LOX IMVI cells. Nature of the assay: cells. The settings on record: Homo sapiens, 48 h, read-out: Cytotoxicity IC50 (μM ± SD) LOX IMVI.
The subject of another assay is K-562. Nature of the assay: NCI-60 SRB screen. The assay is classed as cell-based. Conditions: Homo sapiens, K562, 48 h.
For assay [4], the target named is T1, recombinant Pim-1 kinase.
The test system of assay [5] is Nrf2 in HCT116 cell nuclei. The assay is described as follows: Nrf2 transcription factor ELISA on nuclear protein. The assay is classed as cell-based, human. In general terms: ELISA stands for enzyme-linked immunosorbent assay.
In assay [6] the test system is ROS level in HCT116 cells. Nature of the assay: reactive oxygen species fluorometric assay. The format is cell-based, human. The settings on record: HCT116, 2.94 μM.
Assay [7] concerns HCT116 cells. Nature of the assay: Annexin V-FITC/PI apoptosis assay. The assay is classed as cell-based, human. The settings on record: HCT116, 2.94 μM, 24 h.
Assay [8] concerns HCT116 cells. The assay is described as follows: cell cycle analysis by propidium iodide flow cytometry. The format is cell-based, human. The settings on record: HCT116, 2.94 μM, 24 h.

T1 sequence (P11309 whole entry): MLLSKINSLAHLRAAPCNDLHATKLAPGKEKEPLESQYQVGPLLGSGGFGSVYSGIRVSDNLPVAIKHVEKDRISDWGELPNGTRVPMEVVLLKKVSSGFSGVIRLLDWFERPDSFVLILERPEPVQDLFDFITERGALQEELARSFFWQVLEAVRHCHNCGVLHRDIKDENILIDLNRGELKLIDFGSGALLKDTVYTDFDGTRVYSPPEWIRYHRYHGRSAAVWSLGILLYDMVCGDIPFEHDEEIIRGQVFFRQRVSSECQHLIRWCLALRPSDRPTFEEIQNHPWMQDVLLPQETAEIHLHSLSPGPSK
hCA I, sequence (P00915 whole entry): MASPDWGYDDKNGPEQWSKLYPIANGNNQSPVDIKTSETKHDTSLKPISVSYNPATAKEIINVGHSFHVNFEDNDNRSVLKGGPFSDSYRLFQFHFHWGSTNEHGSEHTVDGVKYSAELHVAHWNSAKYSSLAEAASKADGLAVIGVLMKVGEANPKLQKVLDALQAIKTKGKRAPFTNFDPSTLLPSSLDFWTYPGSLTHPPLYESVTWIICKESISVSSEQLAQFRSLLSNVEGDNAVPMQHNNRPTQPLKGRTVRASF
hCA XII, sequence (O43570 25-354): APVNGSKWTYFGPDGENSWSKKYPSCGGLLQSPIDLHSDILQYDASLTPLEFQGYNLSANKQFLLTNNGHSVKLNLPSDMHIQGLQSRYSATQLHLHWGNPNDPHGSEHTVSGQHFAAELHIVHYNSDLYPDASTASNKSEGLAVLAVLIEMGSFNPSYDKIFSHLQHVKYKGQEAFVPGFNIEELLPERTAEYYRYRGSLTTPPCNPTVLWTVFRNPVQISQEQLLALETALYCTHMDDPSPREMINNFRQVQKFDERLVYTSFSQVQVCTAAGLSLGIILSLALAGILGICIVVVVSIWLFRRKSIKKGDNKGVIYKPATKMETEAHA

On to `COc1ccc(C(=O)/C=C/c2ccccc2Cl)cc1S(N)(=O)=O` [4a, 5-[(2E)-3-(2-Chlorophenyl)prop-2-enoyl]-2-methoxybenzene-1-sulfonamide], for which the Ki on hCA II, on hCA IX, at hCA I and at hCA XII was over 10 µM each time.

Consider `COc1ccc(C(=O)/C=C/c2ccccc2Br)cc1S(N)(=O)=O` [4c, 5-[(2E)-3-(2-Bromophenyl)prop-2-enoyl]-2-methoxybenzene-1-sulfonamide], for which the Ki – broadly, the dissociation constant of the complex between target and ligand, obtained from inhibition or displacement – was over 10 µM at hCA II, 4.71 µM at hCA IX, over 10 µM at hCA I and over 10 µM at hCA XII.

With `COc1ccc(C(=O)/C=C/c2ccc3ccccc3c2)cc1S(N)(=O)=O` [4k, 2-Methoxy-5-[(2E)-3-(Naphthalen-2-Yl)Prop-2-Enoyl]Benzene-1-Sulfonamide], the Ki on hCA II, on hCA IX, at hCA I and on hCA XII was over 10 µM in each case. Moreover, the GI50 (usually the concentration that inhibits growth by half) in the assay on HCT15 is 0.58 µM; with SR, “sub-micromolar”.

Consider `COc1ccc(C(=O)/C=C/c2cccc(Br)c2)cc1S(N)(=O)=O` [4d, 5-[(2E)-3-(3-Bromophenyl)prop-2-enoyl]-2-methoxybenzene-1-sulfonamide], for which the IC50 – broadly, the midpoint of a concentration-inhibition curve – in the assay on hypoxic HCT116 cells is 6.32 ± 0.38 µM; in the assay on HEK293T cells [1], 52.7 ± 2.03 µM; in the assay with HEK293T cells [2], about 53 µM; in the assay with hypoxic U251 cells, 14.8 ± 0.61 µM; at recombinant Pim-1 kinase [3] it was ~1.06 µM and 1.06 µM; with hypoxic LOX IMVI cells, 38.3 ± 1.63 µM. Besides, the “selectivity against colorectal carcinoma HCT116 cells” value in the assay on HEK293T cells [1] is listed as “ca. 50 fold”. The “average cancer cell fold selectivity” value with HEK293T cells [1] was “ca. 20 fold”. Further, in the assay with HEK293T cells [1], the “cancer cell selectivity compared to non-cancerous HEK293T cells” value is on record as “up to 50 fold”. Moreover, the Ki on hCA II stood at 0.5 µM; on hCA I, II, IX, and XII (read-out: average Ki value against the four tested isoforms, hCA I, II, IX, XII), 4 µM; on hCA I it was 0.85 µM. Moreover, the “selectivity toward hCA I and hCA II over hCA IX and hCA XII” value with hCA I, II, IX, and XII is “ca. 10 fold”. Further, the GI50 entry in the assay on SR is “sub-micromolar”.

Turning to `COc1ccc(C(=O)/C=C/c2ccc(Cl)c(Cl)c2)cc1S(N)(=O)=O` [4i, 5-[(2E)-3-(3,4-Dichlorophenyl)prop-2-enoyl]-2-methoxybenzene-1-sulfonamide], the GI50 entry with SR is “sub-micromolar”.

Consider `COc1ccccc1/C=C/C(=O)c1ccc(OC)c(S(N)(=O)=O)c1` [4e, 2-Methoxy-5-[(2E)-3-(2-methoxyphenyl)prop-2-enoyl]benzene-1-sulfonamide], for which, in the assay with K-562, the GI50 is 0.35 µM. That is a sub-micromolar value.

Molecule `COc1ccc(C(=O)/C=C/c2cc3c(cc2Br)OCO3)cc1S(N)(=O)=O` [4l, 5-[(2E)-3-(6-Bromo-2H-1,3-benzodioxol-5-yl)prop-2-enoyl]-2-methoxybenzene-1-sulfonamide] yielded a GI50 in the assay on K-562 of 0.45 µM. Also, the Ki on hCA I is over 10 µM.

For the molecule `COc1ccc(C(=O)/C=C/c2cccc3ccccc23)cc1S(N)(=O)=O` [4j, 2-Methoxy-5-[(2E)-3-(naphthalen-1-yl)prop-2-enoyl]benzene-1-sulfonamide], the IC50 in the assay with hypoxic HCT116 cells stood at 2.94 ± 0.19 µM. In addition, in the assay on HEK293T cells [1], the “selectivity against colorectal carcinoma HCT116 cells” value is listed as about 15 fold, the “average cancer cell fold selectivity” value is reported as about 9 fold, the IC50 was determined as 20.4 ± 0.94 µM and the “cancer cell selectivity compared to non-cancerous HEK293T cells” value was “up to 50 fold”. The IC50 in the assay with HEK293T cells [2] is about 20 µM. The molecule also had a Ki at hCA II of over 10 µM. On recombinant Pim-1 kinase [4], the “fold more potent than staurosporine on Pim-1 kinase” value is reported as “ca. 1.4 fold”. The “fold increase in transcriptionally active nuclear Nrf2” value in [5] (HCT116, 2.94 μM, versus DMSO) is “ca. 3.3 fold”. Also, in [5] (HCT116 nuclei, 2.94 μM, control 0.89), the “Nrf2 (ng/mL ± SD)” value amounted to 2.92 ng/mL. Moreover, the IC50 in the assay with hypoxic U251 cells came out at 4.6 ± 0.26 µM. For the same molecule, the “ROS level increase compared to DMSO-treated cells” value in assay [6] is reported as “ca. 50%”. Also, in the assay with HCT116 cells [7], the early apoptosis is 8.3%, the “fold increase of total apoptotic cells versus control” value worked out at 25 fold, the late apoptosis came out at 27.8% and the total apoptotic cells stood at 39.5%. For the same molecule, the GI50 entry in the assay with SR was “sub-micromolar”. The IC50 on recombinant Pim-1 kinase [3] was ~0.34 µM and 0.34 µM. Moreover, the “selectivity to hCA IX over hCA I and hCA II / other tested isoforms” value at hCA IX is “ca. six-fold selectivity; also recorded: more than six-fold selective; also recorded: greater than six-fold selectivity”. In addition, the IC50 in the assay with hypoxic LOX IMVI cells is 12.1 ± 0.54 µM. The Ki on hCA I was over 10 µM. Also, in the assay with HCT116 cells [8], the “cell cycle arrest phase” value was “arrested the cell cycle of HCT116 cells at the G1/S phase; also recorded: arresting cell growth at the G1/S phase”, the “percentage of cells at the G2/M phase” value was 6%, the “percentage of cells in G1 (G0-G1) phase” value is recorded as 52% and the “percentage of cells in S phase” value is on record as 42%.

As to `COc1ccc(C(=O)/C=C/c2cccc(Cl)c2)cc1S(N)(=O)=O` [4b, 5-[(2E)-3-(3-Chlorophenyl)prop-2-enoyl]-2-methoxybenzene-1-sulfonamide], the Ki at hCA II, on hCA IX, on hCA I and on hCA XII was over 10 µM each time. Moreover, the GI50 entry with SR is reported as “sub-micromolar”.

For the molecule `COc1ccc(C(C)=O)cc1S(N)(=O)=O` [compound 3, 5-acetyl-2-methoxybenzene-1-sulfonamide], the Ki on hCA II was determined as 4.59 µM; at hCA IX, 1.39 µM; at hCA I, 2.32 µM; on hCA XII, 5.25 µM.
